Measurements reported in patent US20080050387A1, “Non-Androgen Dependent Roles for Androgen Receptor and Non-Androgen Related Inhibitors of Androgen Receptor” (priority 2003, published 2008).

Key:
[1] = tested on: AR N/C interaction; experiment: Reconstituted AR transcription assay (AR N/C interaction) in PC-3 cells; format: cell-based, human; conditions: 10 nM DHT, MMTV-LUC
Experimental: (§1) PC-3, CWR22R, and LNCaP cell lines were maintained in […] supplemented with 10% fetal calf serum (FCS). Transient transfection for luciferase assays was carried out in 24-well plates (5×10^4 cells per well) using SuperFect as described previously (Lin, H. K., et al., Embo J 21:4037-48 (2002)). DNA mixtures in transfection assay were indicated in each figure. The total amount of transfected DNA was kept constant (1 μg) by adding the corresponding amounts of empty expression plasmids. After transfection, cells were cultured in RPMI-1600 supplemented with 5% charcoal-stripped FCS in the presence or absence of 10 nM dihydrotestosterone (DHT) for 18 h. Luciferase assays were performed as previously described (Yang, L., et al., J Biol Chem 278:16820-7 (2003)). In Western blotting assays, CWR22R or LNCaP cells were transfected by electroporation using 5×10^6 cells/0.4 ml of RPMI medium containing 2% FCS plus 9 μg of the indicated plasmids. 1 μg of EGFP expression vector was used for transfection efficiency. Electroporation was performed at 250 V and 950 μF using Gene Pulser II (Bio-Rad)

[2] = tested on: AR; experiment: Mammalian two-hybrid assay hRad9 / AR in PC-3 cells; format: cell-based, human; conditions: 10 nM DHT, positive control
Experimental: as §1
Target sequence in this assay (P10275 with tags, fused parts or gaps DEL79-80/DUP473-473): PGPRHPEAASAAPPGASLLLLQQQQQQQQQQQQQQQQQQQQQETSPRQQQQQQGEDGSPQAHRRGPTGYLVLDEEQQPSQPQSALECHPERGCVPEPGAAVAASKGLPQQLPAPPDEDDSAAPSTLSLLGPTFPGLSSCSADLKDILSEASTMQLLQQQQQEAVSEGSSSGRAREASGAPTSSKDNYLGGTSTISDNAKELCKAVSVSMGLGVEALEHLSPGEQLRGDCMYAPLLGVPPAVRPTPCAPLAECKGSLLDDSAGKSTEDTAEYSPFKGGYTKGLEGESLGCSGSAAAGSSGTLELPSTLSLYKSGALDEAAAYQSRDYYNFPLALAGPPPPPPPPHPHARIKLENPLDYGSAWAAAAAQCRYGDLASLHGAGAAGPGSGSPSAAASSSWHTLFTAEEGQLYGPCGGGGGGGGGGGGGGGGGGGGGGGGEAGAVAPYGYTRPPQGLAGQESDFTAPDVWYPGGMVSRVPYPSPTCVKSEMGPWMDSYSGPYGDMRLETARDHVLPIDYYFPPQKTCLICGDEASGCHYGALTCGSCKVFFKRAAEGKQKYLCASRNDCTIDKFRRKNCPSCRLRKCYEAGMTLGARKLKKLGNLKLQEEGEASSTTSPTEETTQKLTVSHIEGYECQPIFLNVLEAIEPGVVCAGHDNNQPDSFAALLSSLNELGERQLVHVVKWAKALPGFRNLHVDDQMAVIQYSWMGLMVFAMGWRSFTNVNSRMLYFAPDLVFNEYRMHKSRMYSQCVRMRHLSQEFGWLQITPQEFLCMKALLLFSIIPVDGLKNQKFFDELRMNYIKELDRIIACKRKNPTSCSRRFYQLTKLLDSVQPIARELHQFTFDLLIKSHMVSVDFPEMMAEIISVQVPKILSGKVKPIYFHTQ

[3] = tested on: estrogen receptor α (ERα); experiment: ERα transcriptional activity ERE-LUC in PC-3 cells with hRad9; format: cell-based; conditions: cognate ligand
Experimental: as §1

[4] = tested on: vitamin D receptor (VDR); experiment: Mammalian two-hybrid assay hRad9 / VDR; format: cell-based; conditions: PC-3 cells
Experimental: as §1

[5] = tested on: AR; experiment: In vitro GST pull-down assay GST-hRad9 / AR domains; format: binding, human
Experimental: The N-terminus (N), DBD, LBD, and DBD-LBD of AR were in vitro translated in the presence of [^35S] methionine using T7 polymerase and the coupled transcription/translation kit (Promega). pGEX-KG-hRad9 plasmids expressing GST-hRad9 fusion protein were transformed into BL21 (DE3) bacteria strain. 0.4 mM isopropyl-o-D-thiogalactopyranoside was added into LB medium containing transformed bacteria when the OD600 reached 0.5. Bacteria were further cultured in 30° C. for 3 h and lysed by 4 cycles of freezing-thawing in NETN buffer (20 mM Tris/pH 8.0, 0.5% NP-40, 100 mM NaCl, 6 mM MgCl2, 1 mM EDTA, 1 mM DTT, 8% glycerol, and 1 mM PMSF). The GST-hRad9 fusion proteins were purified with glutathione-beads in 4° C. Labeled proteins of AR mutants were incubated with equal amounts of GST-hRad9 in binding buffer (50 mM Hepes, 100 mM NaCl, 20 mM Tris-Cl/pH 8.0, 0.1% Tween 20, 10% glycerol, 1 mM dithiothreitol, 0.5 mM phenylmethysulfonyl fluoride, 1 mM NaF, and 0.4 mM sodium vanadate) with or without 10 nM DHT at 4° C. for 2 h. The beads were then washed with NETN buffer 4 times, resuspended in SDS-polyacrylamide loading buffer, and resolved on 10% SDS-polyacrylamide gel electrophoresis followed by autoradiograhy.

[6] = tested on: AR; experiment: AR transactivation MMTV-LUC assay in PC-3 cells with hRad9; format: cell-based, human; conditions: MMTV-LUC, 10 nM DHT
Experimental: as §1
Target sequence in this assay (P10275 with tags, fused parts or gaps DEL79-80/DUP473-473): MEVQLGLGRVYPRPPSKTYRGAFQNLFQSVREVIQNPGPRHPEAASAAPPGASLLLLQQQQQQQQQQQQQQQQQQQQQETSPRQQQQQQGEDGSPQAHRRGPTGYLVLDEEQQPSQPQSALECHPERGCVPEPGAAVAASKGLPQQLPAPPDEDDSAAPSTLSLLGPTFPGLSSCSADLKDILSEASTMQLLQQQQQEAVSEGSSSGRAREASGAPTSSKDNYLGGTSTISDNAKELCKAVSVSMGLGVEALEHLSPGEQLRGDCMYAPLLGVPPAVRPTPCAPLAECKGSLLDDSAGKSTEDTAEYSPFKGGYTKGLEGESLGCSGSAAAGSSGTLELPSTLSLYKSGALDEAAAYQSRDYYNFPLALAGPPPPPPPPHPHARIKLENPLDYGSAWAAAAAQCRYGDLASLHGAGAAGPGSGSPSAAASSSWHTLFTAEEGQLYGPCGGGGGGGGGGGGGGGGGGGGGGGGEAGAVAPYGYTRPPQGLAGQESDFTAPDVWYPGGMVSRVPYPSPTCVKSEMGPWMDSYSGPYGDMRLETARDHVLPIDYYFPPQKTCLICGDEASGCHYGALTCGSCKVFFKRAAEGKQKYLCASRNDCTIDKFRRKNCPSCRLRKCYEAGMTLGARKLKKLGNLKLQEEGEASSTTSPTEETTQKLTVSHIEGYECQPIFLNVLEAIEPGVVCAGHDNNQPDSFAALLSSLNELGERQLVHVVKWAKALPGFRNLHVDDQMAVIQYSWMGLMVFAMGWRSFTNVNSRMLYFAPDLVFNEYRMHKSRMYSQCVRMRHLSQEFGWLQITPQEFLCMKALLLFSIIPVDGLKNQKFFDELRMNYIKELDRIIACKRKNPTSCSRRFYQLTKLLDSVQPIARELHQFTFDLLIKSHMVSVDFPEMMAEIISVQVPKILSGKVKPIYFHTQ

[7] = tested on: vitamin D receptor (VDR); experiment: VDR transcriptional activity rCyp24-LUC in PC-3 cells with hRad9; format: cell-based; conditions: cognate ligand
Experimental: as §1

[8] = tested on: estrogen receptor α (ERα); experiment: Mammalian two-hybrid assay hRad9 / ERα; format: cell-based; conditions: PC-3 cells, presence of estrogen
Experimental: as §1, with “After transfection, cells were cultured in RPMI-1600 supplemented with 5% charcoal-stripped FCS in the presence or absence of 10 nM dihydrotestosterone (DHT) for 18 h.” left out

[9] = tested on: AR (DBD-LBD, LBD, DBD); experiment: Yeast two-hybrid / liquid β-gal assay hRad9 fragment / AR domains; format: cell-based, human; conditions: AH109 yeast cells
Source text: The DBD and LBD of AR cDNA was amplified and was cloned into the NdeI and BamHI site of pGBKT7 (Clontech). Yeast strain AH109 was transformed with the vector encoding GAL4 DBD-AR-DBD-LBD fusion and was mated with yeast strain Y187 pretransformed with the human ovary […] cDNA library (Clontech). The yeast clones were selected following the manufacturer's instruction. The positive clones were confirmed by clone lift assay and purified plasmids were retransformed into yeast strain AH109 with bait plasmids. The interaction specificity was further confirmed by liquid […] assay.

[10] = tested on: PSA expression in LNCaP cells; experiment: DHT-mediated induction of PSA protein in LNCaP cells with hRad9; format: cell-based, human; conditions: 10 nM DHT
Experimental: as §1

vitamin D receptor (VDR), sequence (P11473 whole entry, species assumed): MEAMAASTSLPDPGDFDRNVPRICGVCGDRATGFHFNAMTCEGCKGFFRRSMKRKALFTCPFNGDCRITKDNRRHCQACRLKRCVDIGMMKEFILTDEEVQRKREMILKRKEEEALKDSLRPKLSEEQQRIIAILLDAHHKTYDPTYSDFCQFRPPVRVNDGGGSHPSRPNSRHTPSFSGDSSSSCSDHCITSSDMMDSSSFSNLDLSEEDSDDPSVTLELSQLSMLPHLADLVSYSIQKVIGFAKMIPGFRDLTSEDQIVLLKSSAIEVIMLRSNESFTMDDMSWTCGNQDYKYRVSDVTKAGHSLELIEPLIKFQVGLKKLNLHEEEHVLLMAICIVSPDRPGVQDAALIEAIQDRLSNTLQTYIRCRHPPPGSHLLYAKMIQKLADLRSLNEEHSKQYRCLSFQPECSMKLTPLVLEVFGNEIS
estrogen receptor α (ERα), sequence (P03372 whole entry, species assumed): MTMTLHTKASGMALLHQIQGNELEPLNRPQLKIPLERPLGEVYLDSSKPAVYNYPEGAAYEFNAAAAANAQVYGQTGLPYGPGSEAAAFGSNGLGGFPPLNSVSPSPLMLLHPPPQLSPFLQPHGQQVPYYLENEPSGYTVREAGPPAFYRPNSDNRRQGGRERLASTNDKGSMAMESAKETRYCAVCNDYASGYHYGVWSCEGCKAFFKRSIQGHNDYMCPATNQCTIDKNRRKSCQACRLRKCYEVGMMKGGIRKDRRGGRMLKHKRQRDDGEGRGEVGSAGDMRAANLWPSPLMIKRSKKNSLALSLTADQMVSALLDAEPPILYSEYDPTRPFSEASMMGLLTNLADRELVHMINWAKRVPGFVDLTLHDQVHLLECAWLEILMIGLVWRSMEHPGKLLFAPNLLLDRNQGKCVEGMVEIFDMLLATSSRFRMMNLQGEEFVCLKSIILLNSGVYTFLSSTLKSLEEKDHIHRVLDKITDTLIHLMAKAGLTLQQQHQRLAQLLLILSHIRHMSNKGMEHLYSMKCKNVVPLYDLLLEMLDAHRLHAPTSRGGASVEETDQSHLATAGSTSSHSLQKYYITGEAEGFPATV
AR (DBD-LBD, LBD, DBD), sequence (P10275 558-624): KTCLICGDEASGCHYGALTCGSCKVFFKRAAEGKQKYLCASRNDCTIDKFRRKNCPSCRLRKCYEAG
AR N/C interaction, sequence (P10275 557-920): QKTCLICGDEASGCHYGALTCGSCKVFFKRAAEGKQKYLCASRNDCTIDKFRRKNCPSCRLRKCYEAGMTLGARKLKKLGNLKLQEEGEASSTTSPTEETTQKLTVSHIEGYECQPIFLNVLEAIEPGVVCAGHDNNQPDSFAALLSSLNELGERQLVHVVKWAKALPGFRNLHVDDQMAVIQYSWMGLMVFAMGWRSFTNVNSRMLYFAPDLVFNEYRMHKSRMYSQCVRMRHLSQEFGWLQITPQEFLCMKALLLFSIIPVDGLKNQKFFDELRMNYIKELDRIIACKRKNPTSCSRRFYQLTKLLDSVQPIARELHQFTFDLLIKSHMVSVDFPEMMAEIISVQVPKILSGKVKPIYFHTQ

Substance: HPTHSSRLWELLMEATPTM [GAL4-D30 peptide, reference compound]
- interaction between AR N- and C-terminus [1]: blockage
- DHT-dependent interaction with VP16-AR [2]: 350 fold

Substance: hRad9: human checkpoint protein of the Rad family (SEQ ID NO:7), corepressor of AR
- ER transcriptional activity [3]: little inhibitory effect
- interaction with VDR [4]: no interaction
- interaction with AR LBD and AR-DBD-LBD [5]: interacted specifically
- interaction with N-terminus of AR (aa. 1-556) and DBD alone [5]: Neither the N-terminus of AR (aa. 1-556) nor the DBD alone adhered
- transcriptional activity of AR [6]: decreased
- VDR transcriptional activity [7]: little inhibitory effect
- interaction with ERα [8]: no interaction
- interaction with GAL4-AR-DBD [9]: did not interact
- DHT-mediated induction of PSA [10]: potently inhibited
